The source of these data is patent US20200276154A1, “COMPOSITION FOR PROMOTING ADIPOCYTE DIFFERENTIATION OR ADIPONECTIN, COMPRISING TRIMETHOXY PHENYL COMPOUND” (AMOREPACIFIC CORPORATION, priority 2017, published 2020).

Holding throughout (type): cell-based, human
The test system of experiment [1] is adiponectin (Adipoq) mRNA in hSCFs. Briefly: mRNA expression of adiponectin by real-time quantitative PCR (RT-qPCR). The conditions noted are these: compared with positive control groups KA 400 μM, CA 60 μM, GC 30 μM. How it is done: Total RNA was extracted by treating the hSCFs cultured in Example 1 with a composition containing PAC-2 at various concentrations (μM) or KA (400 μM), CA (60 μM) and GC (30 μM) as positive control groups using a TRIzol reagent (Life Technologies, Carlsbad, Calif., USA) according to the manufacturer's instructions. 1 μg of total RNA was utilized to synthesize complementary DNAs (cDNAs) using the RevertAid first strand cDNA synthesis kit (Thermo Scientific, Pittsburgh, Pa., USA). About 1 μg of the cDNA sample and each TaqMan® probe (Life Technologies, Carlsbad, Calif., USA) were diluted in a reaction mixture of the Quantitect probe PCR kit (QIAGEN, Valencia, Calif., USA) and PCR was conducted using the 7500 fast real-time PCR system (Life Technologies, Carlsbad, Calif., USA). The TaqMan® probe was glyceraldehyde-3-phosphate dehydrogenase (GAPDH; Part #4352339E). All data were acquired from three independent experiments and are presented as fold changes relative to the GAPDH control group.
Background: In qPCR the cycle at which signal appears reflects the starting amount.

The test system of another experiment is hSCFs. The experiment in a line: Quantitative analysis of adipocyte differentiation by Oil Red O (ORO) staining. Particulars: 14 days differentiation, compared with KA 400 μM, CA 60 μM, GC 30 μM. The procedure: Human subcutaneous fat cells (hereinafter, hSCFs) and a subcutaneous preadipocyte differentiation medium were purchased from ZenBio Inc. (NC, USA). The cells were cultured in a humidified 5% CO2 incubator for 7 days.
To induce differentiation, the hSCFs were cultured further for 14 days in a Dulbecco's modified Eagle's medium (DMEM; Lonza, MD, USA) supplemented with 10% fetal bovine serum (FBS, PAA, Pasching, Austria), 10 μg/mL insulin (Sigma-Aldrich, MO, USA), 0.5 mM 3-isobutyl-1-methylxanthine (IBMX; Sigma-Aldrich, St. Louis, Mo., USA), 1 μM dexamethasone (DEX, Sigma-Aldrich, St. Louis, Mo., USA) and 1 μM troglitazone (Sigma-Aldrich, St. Louis, Mo., USA) while replacing the medium every other day.
The hSCFs cultured in Example 1 were differentiated for a total of 14 days by treating with a composition containing PAC-2 at various concentrations (μM) or with KA (400 μM), CA (60 μM) or GC (30 μM) as positive control groups. Then, after washing twice with cold PBS (phosphate-buffered saline), the cells were fixed in 3.7% formaldehyde (Sigma-Aldrich, St. Louis, Mo., USA) for 1 hour. The fixed hSCFs were washed with 60% propylene glycol (Sigma-Aldrich, St. Louis, Mo., USA) in PBS and were treated with Oil Red 0 (0.3% Oil Red 0 in 60% propylene glycol; Sigma-Aldrich, St. Louis, Mo., USA) for 30 minutes. The cells were washed with 85% propylene glycol thrice and then rinsed with tap water. […]

The test system of experiment [2] is secreted adiponectin from hSCFs. The experiment in a line: Quantitative analysis of adiponectin production by ELISA. The conditions noted are these: culture medium, compared with positive control groups KA 400 μM, CA 60 μM, GC 30 μM. The procedure: The hSCFs cultured in Example 1 were treated with KA (400 μM), CA (60 μM) or GC (30 μM) as positive control groups or a composition containing PAC-2 at various concentrations. The culture medium was collected and centrifuged at 13,000 rpm for 15 minutes to remove any debris. The secreted adiponectin was measured using an adiponectin ELISA kit (Enzo Life Sciences, Farmingdale, N.Y., USA) according to the manufacturer's instructions.
(In an ELISA, binding on a coated surface is turned into a signal by an enzyme label.)

Bounds are passed on as bounds.

As to `COc1cc(/C=C/C(=O)OCc2cc(=O)c(O)co2)cc(OC)c1OC` [PAC-2, 3-(3,4,5-trimethoxyphenyl)-acrylic acid 5-hydroxy-4-oxo-4H-pyran-2-ylmethyl ester], the “mRNA expression level of adiponectin” value is given as at least 3 times in experiment [1] (25 μM) and at least 5 times in experiment [1] (50 μM). Moreover, the “number of Oil Red O stained cells” value in the experiment with hSCFs (25 μM) and with hSCFs (50 μM) was “remarkably increased number of stained cells” each time. Further, the “amount of the secreted adiponectin” value in experiment [2] (25 μM) is given as at least 3 times; in experiment [2] (50 μM), at least 7 times.
